The values that follow come from US6407125B1, “Pharmacological agent and method of treatment” (Novactyl, Inc., priority 1995, dated 2002).

Molecules are shown by their SMILES.

Data set [1] in a line: Stability experiments as preservative in foods and on fresh fruits. The class given is physicochemical. Conditions: in foods and on the surface of fresh fruits. An excerpt:
(§1) The chelating agents of the present invention can be used as preservatives in perishable items such as foods and pharmaceuticals and to prevent fungal growth on the surface of fresh fruits. Presently chemicals such as citrashine orthophenilphenol thiabendazole are used. […] Microbial and fungal growth is inhibited while the food components are unaffected. The preservative of the present invention has less likelihood of toxicity or untoward reactions if ingested that the present, complex chemical antifungals. The preferred concentration of picolinic acid or acceptable derivative for this use is approximately below 0.025% to be classified as a preservative. Of course, greater percentages, e.g. up to 99.9% also would be effective.

Data set [2] has as its system Microbial and fungal growth. The data set is described as follows: Preservative effect on microbial and fungal growth in foods. As to conditions: used as preservative.
Description: as §1

In data set [3] the test system is papilloma virus. Description: Topical treatment of ulcerative papilloma virus lesion in a horse. As to conditions: for diameter of the lesion: initially 3 inch. The format is in vivo. The protocol: The lesion was progressive, with total loss of hair over the area. The diagnosis was viral disease, i.e. papilloma virus, complicated by fungal infection. The horse was treated with conventional local antibiotic and chemical therapies for about four months.
An aqueous solution of 10% picolinic acid in deionized water was applied every other day with a cotton swab over and around the lesion. The treatment continued for 45 days. The course of the regression of the viral lesion was as follows: […]

The test system of data set [4] is human papilloma viruses. Description: Topical treatment of common warts. The class given is in vivo. Conditions: 10% to 20% solution or 10% ointment in Aquaphor. On the procedure:
Five patients ranging in age from 11 years to 52 years and each having at least one common wart induced by human papilloma viruses was treated with a topical preparation of picolinic acid The topical preparation was either solution of 10% to 20% picolinic acid in deionized water or a topical ointment wherein 10% picolinic acid is incorporated into Aquaphor, i.e. 1 g of picolinic acid in 10 g of Aquaphor.

Data set [5] in a line: Nasal spray treatment of upper respiratory infection. The format is in vivo, human. Conditions: nasal spray 3 mM in physiologic saline, evening and bedtime, upon arising. The protocol: A college student presented with nasal congestion, slight fever, cough and sore throat. The subject began treatment with nasal spray containing 3 mM picolinic acid in physiologic saline vehicle. The subject used one or two sprays in each nostril after evening meal and before bedtime.

Data set [6] concerns lymphoma. The data set is described as follows: Oral treatment of lymphoma and impaired immunity. Conditions: oral 2000 to 4000 mg per day. The format is in vivo, human. The protocol:
The patient was a person with a history of lymphoma and impaired immunity. The patient had received standard therapy for lymphoma including the CHOP regimen. […] The patient contracted pneumonia three or four times per year and suffered from chronic otitis, chronic sinusitis and chronic Herpes Zoster infections.
The patient was treated with oral picolinic acid starting at 2000 mg per day and increased to 4000 mg per day divided equally in four doses. […] Their immunoglobulin levels rose to 3.3. Their chronic ear and sinus infections and pneumonia resolved concurrently. The Herpes Zoster disappeared.

The conditions of data set [7]: in a 70 Kg subject; cited from earlier work.
Data set [8] deals with cells. Conditions: cited from earlier work.

Turning to `O=C(O)c1ccccn1` [picolinic acid, 2-Pyridine carboxylic acid], the “stability as a preservative” value in data set [1] is recorded as “highly stable”. Further, in data set [2], the “microbial and fungal growth” value is on record as “inhibited”. For the same molecule, the lesion appearance result in data set [3] (10% aqueous solution every other day, after 10 days) was “central necrosis”. Further, the “diameter of the lesion” value in data set [3] (10% aqueous solution, after 20 days) was “approximately 2 inches”; in [3] (10% aqueous solution, after 30 days), “about 1 inch”. Further, in [3] (10% aqueous solution, at 45 days), the lesion outcome was “resolved with some scar tissue”. Also, the recurrence result in [3] (three additional months after treatment) is on record as “without evidence of recurring disease”. Besides, the wart outcome in data set [4] (after approximately 4 to 6 weeks) is “the warts were gone”. For the same molecule, in [4] (after seven days, five patients), the wart appearance result is reported as “central necrosis of the wart occurred”. Also, the upper respiratory symptoms result in [5] is listed as “no fever or sore throat symptoms”. In addition, the “chronic ear and sinus infections and pneumonia” value in [6] is on record as “resolved”. Besides, in [6] (approximately two weeks), the lymphoma response result is “reduction in size of lymph nodes”. The immunoglobulin levels in data set [6] (before treatment 0.6 to 0.7) worked out at 3.3. In [7], the LD-50 is reported as 140 grams. Besides, for the setting “10% in Aquaphor daily, approximately three weeks, two patients”, the actinic lesion outcome is “completely cured”. Further, the “effects on normal skin” value (in vivo) is on record as “without any effects on normal skin”. Also, in [8], the “incorporation of iron into the cells” value is “inhibits incorporation of iron into the cells”. The “removal of radioiron from the cells” value in [8] is listed as “effectively removes radioiron from the cells”.
